Measurements: patent publication US9464081B2, “Pyrrolidine derivatives and their use as complement pathway modulators” (priority 2012, dated 2016)

Target: Recombinant human factor D (Homo sapiens (Human), UniProt P00746)
Assay: Human Complement Factor D Assay: Method 1
Format: biochemical
Settings: 10 nM recombinant human factor D, substrate Z-Lys-thiobenzyl, fluorescence readout, read-out: IC50 Factor D inhibition
Procedure: Human Complement Factor D Assay: Method 1
Recombinant human factor D (expressed in E. coli and purified using standard methods) at 10 nM concentration is incubated with test compound at various concentrations for 1 hour at room temperature in 0.1 M Hepes buffer, pH 7.5, containing 1 mM MgCl2, 1 M NaCl and 0.05% CHAPS. A synthetic substrate Z-Lys-thiobenzyl and 2,4-dinitrobenzenesulfonyl-fluoresceine are added to final concentrations of 200 μM and 25 μM, respectively. The increase in fluorescence is recorded at excitation of 485 nm and emission at 535 nm in a microplate spectrofluorimeter. IC50 values are calculated from percentage of inhibition of complement factor D-activity as a function of test compound concentration.
Factor D Inhibition Data Using Method 1 to Determine the IC50s.

Recombinant human factor D, sequence (P00746 26-253): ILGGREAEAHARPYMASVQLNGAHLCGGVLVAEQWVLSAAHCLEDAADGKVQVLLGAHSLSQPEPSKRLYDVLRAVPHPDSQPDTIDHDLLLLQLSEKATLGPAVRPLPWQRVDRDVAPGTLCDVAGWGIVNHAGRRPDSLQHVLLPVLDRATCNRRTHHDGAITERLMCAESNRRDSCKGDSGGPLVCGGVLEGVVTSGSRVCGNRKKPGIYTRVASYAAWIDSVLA

`CC(C)=C(F)CNC(=O)[C@@H]1C[C@H]2C[C@H]2N1C(=O)Cn1nc(C(N)=O)c2ccccc21` [Example 2, 1-{2-[(1R,3S,5R)-3-(2-Fluoro-3-methyl-but-2-enylcarbamoyl)-2-aza-bicyclo[3.1.0]hex-2-yl]-2-oxo-thyl}-1H-indazole-3-carboxylic acid amide] gave an IC50 of 35 nM.

`CC(C)=C(F)CNC(=O)[C@@H]1C[C@H]2C[C@H]2N1C(=O)Cn1nc(C(N)=O)c2cc(C)ncc21` [Example 12, 1-{2-[(1R,3S,5R)-3-(2-Fluoro-3-methyl-but-2-enylcarbamoyl)-2-aza-bicyclo[3.1.0]hex-2-yl]-2-oxo-ethyl}-5-methyl-1H-pyrazolo[3,4-c]pyridine-3-carboxylic acid amide] gave an IC50 of 74 nM.

`CC(C)=C(F)[C@@H](C)NC(=O)[C@@H]1C[C@H]2C[C@H]2N1C(=O)Cn1nc(C(N)=O)c2ccccc21` [Example 22, 1-(2-((1R,3S,5R)-3-((R)-3-fluoro-4-methylpent-3-en-2-ylcarbamoyl)-2-azabicyclo[3.1.0]hexan-2-yl)-2-oxoethyl)-1H-indazole-3-carboxamide] was tested, and the IC50 was 6 nM.

Compound `CC(C)=C(F)CNC(=O)[C@@H]1C[C@H]2C[C@H]2N1C(=O)Cn1nc(C(N)=O)c2ccncc21` [Example 10, 1-{2-[(1R,3S,5R)-3-(2-Fluoro-3-methyl-but-2-enylcarbamoyl)-2-aza-bicyclo[3.1.0]hex-2-yl]-2-oxo-ethyl}-1H-pyrazolo[3,4-c]pyridine-3-carboxylic acid amide] has an IC50 of 78 nM.

Work on `CCc1cc2c(C(N)=O)nn(CC(=O)N3[C@@H]4C[C@@H]4C[C@H]3C(=O)NCC(F)=C(C)C)c2cn1` [Example 15, 5-Ethyl-1-{2-[(1R,3S,5R)-3-(2-fluoro-3-methyl-but-2-enylcarbamoyl)-2-aza-bicyclo[3.1.0]hex-2-yl]-2-oxo-ethyl}-1H-pyrazolo[3,4-c]pyridine-3-carboxylic acid amide] yielded an IC50 of 43 nM.

In the case of `[2H]C([2H])([2H])C(=C(F)CNC(=O)[C@@H]1C[C@H]2C[C@H]2N1C(=O)Cn1nc(C(N)=O)c2ccccc21)C([2H])([2H])[2H]` [Example 18, 1-{2-[(1R,3S,5R)-3-(2-Fluoro-3-di-(trideutero-methyl)-allylcarbamoyl)-2-aza-bicyclo[3.1.0]hex-2-yl]-2-oxo-ethyl}-1H-indazole-3-carboxylic acid amide], the IC50 is reported as 50 nM.

`CC(C)=C(F)C(C)NC(=O)[C@@H]1C[C@H]2C[C@H]2N1C(=O)Cn1nc(C(N)=O)c2ccccc21` (stereo partly drawn) [Example 19, 1-{2-[(1R,3S,5R)-3-(2-Fluoro-1,3-dimethyl-but-2-enylcarbamoyl)-2-aza-bicyclo[3.1.0]hex-2-yl]-2-oxo-ethyl}-1H-indazole-3-carboxylic acid amide] showed an IC50 of 7 nM.

`CC(C)=C(F)CNC(=O)[C@@H]1C[C@H]2C[C@H]2N1C(=O)Cn1nc(C(N)=O)c2ccnc(C)c21` [Example 14, 1-{2-[(1R,3S,5R)-3-(2-Fluoro-3-methyl-but-2-enylcarbamoyl)-2-aza-bicyclo[3.1.0]hex-2-yl]-2-oxo-ethyl}-7-methyl-1H-pyrazolo[3,4-c]pyridine-3-carboxylic acid amide] was tested, and the IC50 was 63 nM.

`CC(C)=C(F)CNC(=O)[C@@H]1C[C@H]2C[C@H]2N1C(=O)Cn1nc(C(N)=O)c2ccc(Cl)cc21` [Example 1, 6-Chloro-1-{2-[(1R,3S,5R)-3-(2-fluoro-3-methyl-but-2-enylcarbamoyl)-2-aza-bicyclo[3.1.0]hex-2-yl]-2-oxo-ethyl}-1H-indazole-3-carboxylic acid amide] gave an IC50 of 33 nM.

Work on `CO[C@H]1[C@@H](C(=O)NCC(F)=C(C)C)N(C(=O)Cn2nc(C(N)=O)c3ccncc32)C[C@@H]1F` [Example 5, 1-{2-[(2S,3S,4S)-4-Fluoro-2-(2-fluoro-3-methyl-but-2-enylcarbamoyl)-3-methoxy-pyrrolidin-1-yl]-2-oxo-ethyl}-1H-pyrazolo[3,4-c]pyridine-3-carboxylic acid amide] yielded an IC50 of 253 nM.

For `CO[C@H]1[C@@H](C(=O)NCC(F)=C(C)C)N(C(=O)Cn2nc(C(N)=O)c3ccccc32)C[C@@H]1F` [Example 8, 1-{2-[(2S,3S,4S)-4-Fluoro-2-(2-fluoro-3-methyl-but-2-enylcarbamoyl)-3-methoxy-pyrrolidin-1-yl]-2-oxo-ethyl}-1H-indazole-3-carboxylic acid amide], the IC50 was 59 nM.

`CC(C)=C(F)[C@H](C)NC(=O)[C@@H]1C[C@H]2C[C@H]2N1C(=O)Cn1nc(C(N)=O)c2ccccc21` [Example 21, 1-(2-((1R,3S,5R)-3-((S)-3-fluoro-4-methylpent-3-en-2-ylcarbamoyl)-2-azabicyclo[3.1.0]hexan-2-yl)-2-oxoethyl)-1H-indazole-3-carboxamide] gave an IC50 of 1800 nM.

`CC(C)=C(F)CNC(=O)[C@@H]1C[C@@H](F)CN1C(=O)Cn1nc(C(N)=O)c2ccccc21` [Example 7, 1-{2-[(2S,4R)-4-Fluoro-2-(2-fluoro-3-methyl-but-2-enylcarbamoyl)-pyrrolidin-1-yl]-2-oxo-ethyl}-1H-indazole-3-carboxylic acid amide] gave an IC50 of 56 nM.

Work on `CC(=O)c1nn(CC(=O)N2[C@@H]3C[C@@H]3C[C@H]2C(=O)NCC(F)=C(C)C)c2ccccc12` [Example 11, (1R,3S,5R)-2-[2-(3-Acetyl-indazol-1-yl)-acetyl]-2-aza-bicyclo[3.1.0]hexane-3-carboxylic acid (2-fluoro-3-methyl-but-2-enyl)-amide] yielded an IC50 of 19 nM.

For `CC(=O)c1nn(CC(=O)N2[C@@H]3C[C@@H]3C[C@H]2C(=O)NCC(F)=C(C)C)c2cnccc12` [Example 13, (1R,3S,5R)-2-[2-(3-Acetyl-pyrazolo[3,4-c]pyridin-1-yl)-acetyl]-2-aza-bicyclo[3.1.0]hexane-3-carboxylic acid (2-fluoro-3-methyl-but-2-enyl)-amide], the IC50 was 37 nM.

Compound `CC(C)=C(F)CNC(=O)[C@@H]1C[C@H]2C[C@H]2N1C(=O)Cn1nc(C(N)=O)c2cc(C)nc(C)c21` [Example 9, 1-{2-[(1R,3S,5R)-3-(2-Fluoro-3-methyl-but-2-enylcarbamoyl)-2-aza-bicyclo[3.1.0]hex-2-yl]-2-oxo-ethyl}-5,7-dimethyl-1H-pyrazolo[3,4-c]pyridine-3-carboxylic acid amide] has an IC50 of 356 nM.

`NC(=O)c1nn(CC(=O)N2[C@@H]3C[C@@H]3C[C@H]2C(=O)NC/C(F)=C/C(F)(F)F)c2ccccc12` [Example 20, 1-(2-oxo-2-((1R,3S,5R)-3-(((Z)-2,4,4,4-tetrafluorobut-2-en-1-yl)carbamoyl)-2-azabicyclo[3.1.0]hexan-2-yl)ethyl)-1H-indazole-3-carboxamide] showed an IC50 of 90 nM.

`CC(C)=C(F)CNC(=O)[C@@H]1C[C@@H](F)CN1C(=O)Cn1nc(C(N)=O)c2ccncc21` [Example 3, 1-{2-[(2S,4R)-4-Fluoro-2-(2-fluoro-3-methyl-but-2-enylcarbamoyl)-pyrrolidin-1-yl]-2-oxo-ethyl}-1H-pyrazolo[3,4-c]pyridine-3-carboxylic acid amide] was tested, and the IC50 was 255 nM.

With `NC(=O)c1nn(CC(=O)N2[C@@H]3C[C@@H]3C[C@H]2C(=O)NCC(F)=C2CCCC2)c2ccccc12` [Example 17, 1-{2-[(1R,3S,5R)-3-(2-Cyclopentylidene-2-fluoro-ethylcarbamoyl)-2-aza-bicyclo[3.1.0]hex-2-yl]-2-oxo-ethyl}-1H-indazole-3-carboxylic acid amide] the IC50 was 128 nM.

`CC(C)=C(F)CNC(=O)[C@@H]1C[C@H]2C[C@H]2N1C(=O)Cn1nc(C(N)=O)c2ccc(C)cc21` [Example 4, 1-{2-[(1R,3S,5R)-3-(2-Fluoro-3-methyl-but-2-enylcarbamoyl)-2-aza-bicyclo[3.1.0]hex-2-yl]-2-oxo-ethyl}-6-methyl-1H-indazole-3-carboxylic acid amide] showed an IC50 of 450 nM.

For `CC(C)=C(F)CNC(=O)[C@@H]1C[C@@]2(CO)C[C@H]2N1C(=O)Cn1nc(C(N)=O)c2ccccc21` [Example 6, 1-{2-[(1R,3S,5S)-3-(2-Fluoro-3-methyl-but-2-enylcarbamoyl)-5-hydroxymethyl-2-aza-bicyclo[3.1.0]hex-2-yl]-2-oxo-ethyl}-1H-indazole-3-carboxylic acid amide], the IC50 was 99 nM.

For `CC(=O)c1nn(CC(=O)N2[C@@H]3C[C@@H]3C[C@H]2C(=O)NCC(F)=C(C)C)c2ccc(OCc3ncccn3)cc12` [Example 16, (1R,3S,5R)-2-{2-[3-Acetyl-5-(pyrimidin-2-ylmethoxy)-indazol-1-yl]-acetyl}-2-aza-bicyclo[3.1.0]hexane-3-carboxylic acid (2-fluoro-3-methyl-but-2-enyl)-amide], the IC50 was 7 nM.
